Results published in patent publication US20230167088A1, “1-PYRAZINYLPYRAZOLYL-3-OXYALKYL ACIDS AND THEIR DERIVATIVES, AND THEIR USE FOR CONTROL OF UNDESIRED PLANT GROWTH” (BAYER AKTIENGESELLSCHAFT, priority 2020, published 2023).

Key:
AVEFA = experiment: Herbicidal post-emergence action 1a (greenhouse pots, visual rating); assay type: in vivo, Avena fatua; details: Dosage 320 g/ha; rated visually about 3 weeks after treatment; 100% = plants have died, 0% = like control plants
How it was run: (§1)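 Weeds and crops sown in sandy loam in greenhouse pots were sprayed post-emergence at the one-leaf stage (2–3 weeks after sowing) with WP or EC formulations plus 0.5% additive at 600 l/ha water, 320 and/or 80 g/ha. About 3 weeks later damage was rated visually against untreated controls (0% = no effect, 100% = dead).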

ECHCG = experiment: as above; assay type: in vivo, Echinochloa crus-galli; details: Dosage 320 g/ha; rated visually about 3 weeks after treatment; 100% = plants have died, 0% = like control plants
How it was run: as §1

AMARE [1] = experiment: as above; assay type: in vivo, Amaranthus retroflexus; details: dosage 320 g/ha, visual rating about 3 weeks after treatment
How it was run: as §1

VERPE = experiment: as above; assay type: in vivo, Veronica persica; details: dosage 320 g/ha, visual rating about 3 weeks after treatment
How it was run: as §1

POAAN = experiment: Herbicidal post-emergence action 1b (twin sowing, 1280 g/ha); assay type: in vivo, Poa annua; details: dosage 1280 g/ha, visual rating about 3 weeks after treatment
How it was run: (§2)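 Post-emergence foliar spray on one-leaf weeds grown two species per pot in sandy loam; ~3 weeks later, visual rating from 0% (as control) to 100% (plants died).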

STEME [2] = experiment: as above; assay type: in vivo, Stellaria media; details: dosage 1280 g/ha, visual rating about 3 weeks after treatment
How it was run: as §2

SETVI = experiment: Herbicidal pre-emergence action 2a (greenhouse pots, visual scoring); assay type: in vivo, Setaria viridis; details: dosage 320 g/ha, visual scoring after about 3 weeks vs untreated controls
How it was run: (§3)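 Seeds were sown in pots, covered with soil, and the compound (WP or EC formulation) was sprayed onto the soil surface as an aqueous suspension or emulsion with 0.5% additive at 600 l/ha water, at 320 g/ha and/or 80 g/ha. Greenhouse growth followed for about 3 weeks, then visual scoring against untreated controls.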

AMARE [3] = experiment: as above; assay type: in vivo, Amaranthus retroflexus; details: dosage 320 g/ha, visual scoring after about 3 weeks vs untreated controls
How it was run: as §3

STEME [4] = experiment: Herbicidal pre-emergence action 2b (doubly sown, 1280 g/ha); assay type: in vivo, Stellaria media; details: doubly sown pots, dosage 1280 g/ha, visual scoring after about 3 weeks
How it was run: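 Seeds are placed in sandy loam and covered, then the formulated compound is applied to the covering soil in water equivalent to 600 litres per hectare with 0.5% additive. Pots stay in the greenhouse under good growth conditions. Activity is rated visually as a percentage of untreated controls after about three weeks.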

harmful plants = experiment: Herbicidal pre-emergence action 2a, summary across species; assay type: in vivo; details: Tables B1 to B15 (320 g/ha and/or 80 g/ha)
How it was run: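 Pre-emergence greenhouse test: WP or EC formulations sprayed onto soil covering sown weed and crop seeds, 600 l/ha water with 0.5% additive, at 320 g/ha and/or 80 g/ha. Damage scored visually after about 3 weeks as % versus untreated control (100% = plants dead).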

Structure (SMILES): COC(=O)[C@@H](C)Oc1nn(-c2cnccn2)c(-c2ccc(F)c(F)c2)c1Br [Example I-45]
- Post-emergence action against AVEFA in % (AVEFA): 80%
- Post-emergence action against ECHCG in % (ECHCG): 80%
- Post-emergence action against AMARE in % (AMARE [1]): 90%
- Post-emergence action against VERPE in % (VERPE): 80%
- Post-emergence action at 1280 g/ha against POAAN in % (POAAN): 100%
- Post-emergence action at 1280 g/ha against STEME in % (STEME [2]): 100%
- Pre-emergence action against SETVI in % (SETVI): 100%
- Pre-emergence action against AMARE in % (AMARE [3]): 100%
- Pre-emergence action at 1280 g/ha against STEME in % (STEME [4]): 100%
- herbicidal efficacy against harmful plants in the case of pre-emergence treatment (in words) (harmful plants): good herbicidal efficacy
